Results as given in US12692262B2, “Substituted ureas as orexin receptor agonists” (Merck Sharp & Dohme LLC, priority 2020, dated 2026).

Biological target: T1, human OX2R (Homo sapiens, UniProt O43614)
T1 construct: expressed in transfected cells; host or cells: CHO (Chinese hamster ovary) cells grown under G418 selection
T1 sequence (O43614 1-444): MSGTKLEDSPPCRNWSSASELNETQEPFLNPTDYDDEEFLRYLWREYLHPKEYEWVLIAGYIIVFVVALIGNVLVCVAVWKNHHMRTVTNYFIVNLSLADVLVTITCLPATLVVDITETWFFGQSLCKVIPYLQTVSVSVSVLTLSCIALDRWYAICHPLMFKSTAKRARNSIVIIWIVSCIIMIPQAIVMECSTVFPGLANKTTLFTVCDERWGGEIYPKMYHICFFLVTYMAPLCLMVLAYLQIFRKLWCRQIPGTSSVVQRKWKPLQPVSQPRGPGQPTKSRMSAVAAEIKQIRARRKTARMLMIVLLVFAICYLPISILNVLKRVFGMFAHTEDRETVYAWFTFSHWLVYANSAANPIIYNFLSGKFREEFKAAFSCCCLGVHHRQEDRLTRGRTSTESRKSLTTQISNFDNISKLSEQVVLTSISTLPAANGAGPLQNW
Assay: IPOne (IP-1 accumulation) assay in CHO cells expressing human OX2R
Type: cell-based
Settings: for EC50: CHO cells expressing human OX2R, IP-One assay, 2 h incubation, four parameter logistic fit, read-out: OX2R Potency, EC50; for % of maximum agonist effect (relative to Orexin A): percent effect vs mean max effect of a reference compound at 1 uM (100% activity vs Orexin A), human OX2R
How it was run: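 CHO cells stably expressing human OX2R, grown in Iscove's modified DMEM with 10% FBS; agonist-driven IP-1 accumulation via the Gαq pathway measured by HTRF (D2/AB-cryptate detection after lysis). EC50 taken as the inflection point of a four-parameter logistic fit.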

Structure (SMILES)	EC50 [nM]	% of maximum agonist effect (relative to Orexin A) [%]
CCN(C(=O)NC(C1CCOCC1)C(F)(F)F)[C@@H](c1cc(-c2cn3cc(C)nc3c(OC)n2)c(OC)cn1)C(F)(F)F (stereo partly drawn) [Example 2-48, 1-ethyl-1-((S)-2,2,2-trifluoro-1-(5-methoxy-4-(8-methoxy-2-methylimidazo[1,2-a]pyrazin-6-yl)pyridin-2-yl)ethyl)-3-(2,2,2-trifluoro-1-(tetrahydro-2H-pyran-4-yl)ethyl)urea]	17.6	101.0
CCN(C(=O)N[C@@H](CCC(F)(F)F)C(F)(F)F)C(c1cc(-c2cn3ccnc3c(OC)n2)cnc1OC)C(F)(F)F (stereo partly drawn) [Example 10-17, 1-ethyl-3-((S)-1,1,1,5,5,5-hexafluoropentan-2-yl)-1-(2,2,2-trifluoro-1-(2-methoxy-5-(8-methoxyimidazo[1,2-a]pyrazin-6-yl)pyridin-3-yl)ethyl)urea]	88.8	100.5
CC[C@H](NC(=O)N(CC)C(c1cc(-c2cn3ccnc3c(OC)n2)c(OC)cn1)C(F)(F)F)C(F)(F)F (stereo partly drawn) [Example 2-8, 1-ethyl-1-(2,2,2-trifluoro-1-(5-methoxy-4-(8-methoxyimidazo[1,2-a]pyrazin-6-yl)pyridin-2-yl)ethyl)-3-((S)-1,1,1-trifluorobutan-2-yl)urea]	13.3	100.0
CCN(C(=O)NC1CC1(F)F)[C@@H](c1cc(-c2cn3ccnc3c(OC)n2)c(OC)cn1)C(F)(F)F (stereo partly drawn) [Example 2-42, 3-(2,2-difluorocyclopropyl)-1-ethyl-1-((S)-2,2,2-trifluoro-1-(5-methoxy-4-(8-methoxyimidazo[1,2-a]pyrazin-6-yl)pyridin-2-yl)ethyl)urea]	27.8	101.7
CCN(C(=O)N[C@@H](CCC(F)(F)F)C(F)(F)F)C(C)c1cc(-c2cc(F)c3nccn3c2)c(OC)cn1 (stereo partly drawn) [Example 15-2, 1-ethyl-1-(1-(4-(8-fluoroimidazo[1,2-a]pyridin-6-yl)-5-methoxypyridin-2-yl)ethyl)-3-((S)-1,1,1,5,5,5-hexafluoropentan-2-yl)urea]	1	99.1
CCN(C(=O)NC(CO)C(F)(F)F)[C@H](C)c1cccc(-c2cn3ccnc3c(OC)n2)c1 (single isomer, unassigned) [Example 21]	50.9	96.3
CCN(C(=O)N[C@@H](CCC(F)(F)F)C(F)(F)F)C(C)c1ccnc(-c2cn3ccnc3c(OC)n2)n1 (stereo partly drawn) [Example 2-63, 1-ethyl-3-((S)-1,1,1,5,5,5-hexafluoropentan-2-yl)-1-(1-(2-(8-methoxyimidazo[1,2-a]pyrazin-6-yl)pyrimidin-4-yl)ethyl)urea]	1060	96.2
CCC(CCC(F)(F)F)NC(=O)N(CC)[C@H](C)c1cccc(-c2cnc3nccn3c2)c1 (stereo partly drawn) [Example 8-7, 1-ethyl-1-((R)-1-(3-(imidazo[1,2-a]pyrimidin-6-yl)phenyl)ethyl)-3-(6,6,6-trifluorohexan-3-yl)urea]	180	99.3
